Laboratory results reported in publication PMC3664942 (Physical chemistry chemical physics : PCCP, 2013).

Columns and labels:
Aβ1-40 = experiment: nESI-IM-MS neuropeptide screen for binding with Aβ1-40; settings: for Complex formation with Aβ1-40 detected by nESI-IM-MS: 20 μM Aβ1-40, one equivalent of neuropeptide, pH 6.9, 1 h on ice; for Aβ complexes detected by IM-MS: neuropeptide added in large excess in solution
hippocampal neurons = settings: μM concentrations; cited from earlier work
metal-free Aβ1-40 = settings: read-out: Kd relative to Aβ monomer; absence of metal ions; cited from earlier work

Row | Substance | Complex formation with Aβ1-40 detected by nESI-IM-MS (Aβ1-40) | Aβ complexes detected by IM-MS (Aβ1-40) | Inhibition of Aβ-induced neurotoxicity (hippocampal neurons) | Kd (metal-free Aβ1-40) [µM]
1 | Somatostatin 14 | not evident | No Aβ complexes were detected | – | –
2 | physalaemin [reference compound] | – | – | inhibitors of Aβ-induced neurotoxicity | –
3 | galanin | detected | – | – | –
4 | substance P | not evident | No Aβ complexes were detected | inhibitors of Aβ-induced neurotoxicity | –
5 | (–)-epigallocatechin-3-gallate [EGCG] | – | – | – | ~60
6 | neurotensin | not evident | No Aβ complexes were detected | – | –
